Results reported in patent US5763438A, “2-acylaminopropanol compound and medical composition” (Seikagaku Corporation, priority 1994, dated 1998).
Where two headings read alike, the source gives them in different places.

Assays:
[1] = tested on: A/PR/8/34 strain influenza virus; experiment: microbe, parasite or virus in culture; format: cell-based, influenza virus A/PR/8/34; details: for EC50: unidentified influenza virus, PR/8, MDCK, 72 h, read-out: ED50 (concentration at which the cytopathic effect derived from virus was reduced by 50% as compared with a control)
[2] = Cytotoxicity to uninfected MDCK cells (MTT method); details: dog, mdck cells
Description: (§1) Further, in order to evaluate the cytotoxicities to the MDCK cells of the compounds of the present invention, these compounds at the same concentration were added to cells which were not infected with virus, and the survival rate after carrying out culture in the same manner was examined by the MTT method, which is also shown in Table 1.

[3] = tested on: A/PR/8/34 strain influenza virus; experiment: microbe, parasite or virus in culture; format: cell-based, influenza virus A/PR/8/34; details: for inhibition at 10 µM: unidentified influenza virus, PR/8, MDCK, 72 h, read-out: Virus growth inhibition (%)
MDCK cells = experiment: Cytotoxicity to uninfected MDCK cells (MTT method); details: 10 μM; MDCK cells
Description: as §1

B16 melanoma cells = experiment: Glycolipid biosynthesis-accelerating action in B16 melanoma cells (uptake of 14C-galactose into GSL fraction); format: cell-based; details: for Uptake of 14C-galactose into GSL fraction: 24 hours, control 6,100; for Acceleration of biosynthesis of glycolipids including ganglioside (in words): Table 2
Description: B16 melanoma cells derived from neuroectoderm were put into a culture plate with 12 wells in an amount of 2×10^5 cells/well and cultured for 24 hours in Dulbecco modified Eagle's media containing 10% bovine fetal serum. Thereafter, the media were exchanged with the same culture broths containing 2-acylaminopropanol compounds shown in Table 2, and ^14 C-galactose was added thereto. After 24 hours, the media were removed, the cells were washed with 1 ml of a phosphate buffer containing 0.02% EDTA, 1 ml of 0.25 % trypsin was added, and the mixtures were left to stand at 37° C. for 5 minutes. The cells were recovered by using the same culture broths and washed with a phosphate buffer, and then masses of the cells were obtained. 4 ml of methanol and chloroform were added successively to the masses of the cells to extract all GSL, followed by evaporation to dryness. Next, after this all GSL was suspended in 1 ml of water, the suspensions were dialyzed to water for 2 days to completely remove low molecules such as ^14 C-galactose, etc. The radioactivities of the GSL fractions thus obtained were measured by a liquid scintillation counter. A control is a result of carrying out an experiment in the same manner by exchanging the medium with the same amount of a culture broth not containing the compound of the present invention.

virus = details: Seikagaku vol. 65(8), p. 695 (1993); cited from earlier work
[4] = J. Lipid Res., Vol. 32, 713-722 (1991); cited from earlier work
[5] = 10 μM, MDCK cells, 3 days at 37° C., control 80.0
[6] = Mus musculus, B16, 24 h, 10 μM, control 100, read-out: Glycolipid biosynthesis acceleration (%)

Row | Structure (SMILES) | Cytopathic effect (%) [1, 5] | EC50 [1] | viability at 72 h, 10 µM [2] | inhibition at 10 µM [3] | Uptake of 14C-galactose into GSL fraction (B16 melanoma cells; 10 μM) | activity at 10 µM (B16 melanoma cells; [6]) | Acceleration of biosynthesis of glycolipids including ganglioside (in words) (B16 melanoma cells) | further results
1 | CCCCCCCCCC(=O)NC(CN1CCCCC1CO)C(O)c1ccccc1 (mixture of isomers) [drawing 11 (Mixture of isomers), 2-decanoylamino-3-(2-(hydroxymethyl)-piperidino)-1-phenyl-1-propanol] | 3.1% | 1.5 µM | 80 to 100% | 99.7% |  |  |  | 
2 | CCCCCCCCCC(=O)N[C@@H](CN1CCCCC1)[C@H](O)c1ccccc1 (relative stereo) [drawing 8 (DL-erythro), 2-decanoylamino-1-phenyl-3-piperidino-1-propanol] | 7.8% |  | 80 to 100% | 99.6% |  |  |  | 
3 | CCCCCCCCCC(=O)N[C@H](CN1CCCCC1)[C@H](O)c1ccccc1 (relative stereo) [drawing 8 (DL-threo), 2-decanoylamino-1-phenyl-3-piperidino-1-propanol] | 40.0% |  | 80 to 100% | 93.9% |  |  |  | 
4 | CCCCCCCCCC(=O)N[C@@H](CN1CCC(O)CC1)[C@H](O)c1ccccc1 (relative stereo) [drawing 9 (DL-erythro), 2-decanoylamino-3-(4-hydroxypiperidino)-1-phenyl-1-propanol] |  | 5 µM | 100% | 100% |  |  |  | Cytopathic effect (%) [1]: 0%; Cytotoxicity (in words) (MDCK cells): cytotoxicity at this concentration was not observed at all; Suppression of growth of influenza virus (in words) [3]: completely suppressed growth of influenza virus
5 | CCCCCCCCCC(=O)N[C@H](CN1CCC(O)CC1)[C@H](O)c1ccccc1 (relative stereo) [drawing 9 (DL-threo), 2-decanoylamino-3-(4-hydroxypiperidino)-1-phenyl-1-propanol] | 14.2% | 5.4 µM | 100% | 87.3% |  |  |  | 
6 | CCCCCCCCCC(=O)N[C@@H](CN(CC)CC)[C@H](O)c1ccccc1 (relative stereo) [drawing 10 (DL-erythro), 2-decanoylamino-3-diethylamino-1-phenyl-1-propanol] | 9.9% | 1.5 µM | 100% | 88.5% |  |  |  | 
7 | CCCCCCCCCC(=O)N[C@@H](CN1CCN(C)CC1)[C@@H](O)c1ccccc1 [Compound 2] |  |  |  |  | 10,300 cpm/mg protein | 169% | significantly accelerate biosynthesis of glycolipids including ganglioside | 
8 | CCCCCCCCCC(=O)N[C@@H](CN1CCC(O)C1)[C@@H](O)c1ccccc1 (some centres unmarked) [Compound 3] |  |  |  |  | 9,380 cpm/mg protein | 161% | significantly accelerate biosynthesis of glycolipids including ganglioside | 
9 | CCCCCCCCCC(=O)N[C@@H](CNC1CCC(O)CC1)[C@@H](O)c1ccccc1 (some centres unmarked) [Compound 4] |  |  |  |  |  |  | significantly accelerate biosynthesis of glycolipids including ganglioside | Uptake of 14C-galactose into GSL fraction (B16 melanoma cells; 5 μM): 9,740 cpm/mg protein; activity at 5 µM (B16 melanoma cells; Mus musculus, B16, 24 h, 5 μM, control 100, read-out: Glycolipid biosynthesis acceleration (%)): 160%
10 | CCCCCCCCCC(=O)N[C@H](CN1CCOCC1)[C@H](O)c1ccccc1 [D-threo-PDMP, reference compound] |  |  | 60 to 80% | 97.1% |  |  |  | Cytopathic effect (%) [1]: 44.8%
11 | CCCCCCCCCC(=O)NC(CN1CCOCC1)C(O)c1ccccc1 (centres unmarked) [PDMP, 1-phenyl-2-decanoylamino-3-morpholino-1-propanol] |  |  |  |  |  |  |  | Antiviral activity (in words) (virus): has an antiviral activity; Passing a blood-brain barrier (in words) [4]: can pass a blood-brain barrier
12 | CCCCCCCCCC(=O)N[C@@H](CN1CCC(O)CC1)[C@H](O)c1ccccc1 [drawing 13 (D-erythro)] |  |  |  |  | 11,470 cpm/mg protein | 188% | significantly accelerate biosynthesis of glycolipids including ganglioside | 
13 | CCCCCCCCCC(=O)N[C@@H](CN1CCC(O)CC1)[C@@H](O)c1ccccc1 [drawing 13 (L-threo)] |  |  |  |  | 9,670 cpm/mg protein | 159% | significantly accelerate biosynthesis of glycolipids including ganglioside | 
